Consider two molecules from patent publication US20240051985A1, “METTL3 MODULATORS” (ACCENT THERAPEUTICS, INC., priority 2020, published 2024).

One test concerns the target METTL3/METTL14 (Homo sapiens, UniProt Q86U44). Nature of the test: METTL3-14 standard enzyme assay (3H-SAM flashplate). The settings on record: Table 3; METTL3 biochemical assay. In outline:
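METTL3/METTL14 (2.5 nM) preincubated 5 min, then reacted with 3′-biotinylated RNA UCUGGACUAAA (100 nM) and 3H-SAM (100 nM) for 30 min at ambient temperature in 20 mM HEPES pH 7.5, 50 mM KCl, 250 μM MgCl2, 1 mM DTT. Quenched with 15 μM cold SAM; product captured on streptavidin flashplates, scintillation counted.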

The target of another test is PRMT5-MEP50 (Homo sapiens, UniProt O14744). Briefly: PRMT5 assay (3H-SAM flashplate). The settings on record: Table 3; PRMT5 biochemical assay. The essentials:
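PRMT5-MEP50 at 2.5 nM, preincubated 5 min with compound in 20 mM Tris-HCl pH 8.0, 1 mM DTT, 0.01% Tween at ambient temperature. Biotinylated acetylated histone H4 peptide (100 nM) and 3H-SAM (250 nM) react 60 min, quenched with 15 μM cold SAM; methylation captured on streptavidin flashplates and scintillation-counted.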

Test [1] deals with m^6A in cellular mRNA of MOLM-13 cells. Briefly: m^6A-mRNA LC-MS/MS assay (m^6A cellular assay). Particulars: Homo sapiens, Table 3, 24 hours. The test is classed as cell-based. The protocol:
5×10^6 MOLM-13 (DSMZ) cells were seeded into 10 cm dishes in RPMI 1640 media containing 10% fetal bovine serum and placed in a humidified tissue culture incubator at 37° C. overnight. Compounds were resuspended in 100% DMSO and dosed into each dish at a fixed concentration to comprise an 8-point dose response with a 4-fold serial dilution ranging from 25 μM to 1.5 nM in 0.25% DMSO final and allowed to incubate for 24 hours in a humidified tissue culture incubator at 37° C. Cells were harvested by centrifugation followed by mRNA extraction using DIRECT Dynabeads mRNA DIRECT kit (Life Technologies). mRNA was quantified on NanoDrop spectrophotometer (Thermo Fisher Scientific) and digested into single nucleosides using Nucleoside Digestion Mix (New England Biolabs). Nucleosides are quantified with retention time on a BEH C18 column (Waters) and the nucleoside-to-base ion mass transition of 282.1-150.1 (m^6A) and 268-136 (A) on an API 6500+ triple quadrupole mass spectrometer. Quantification is performed in comparison with the standard curve, obtained from pure nucleoside standards (Selleck Chemicals) running with the same batch of samples. Percentage m^6A in cellular mRNA is calculated as 100*(m^6A/A).

Structures are written as SMILES.

Chain of PRMT5-MEP50 (O14744 whole entry): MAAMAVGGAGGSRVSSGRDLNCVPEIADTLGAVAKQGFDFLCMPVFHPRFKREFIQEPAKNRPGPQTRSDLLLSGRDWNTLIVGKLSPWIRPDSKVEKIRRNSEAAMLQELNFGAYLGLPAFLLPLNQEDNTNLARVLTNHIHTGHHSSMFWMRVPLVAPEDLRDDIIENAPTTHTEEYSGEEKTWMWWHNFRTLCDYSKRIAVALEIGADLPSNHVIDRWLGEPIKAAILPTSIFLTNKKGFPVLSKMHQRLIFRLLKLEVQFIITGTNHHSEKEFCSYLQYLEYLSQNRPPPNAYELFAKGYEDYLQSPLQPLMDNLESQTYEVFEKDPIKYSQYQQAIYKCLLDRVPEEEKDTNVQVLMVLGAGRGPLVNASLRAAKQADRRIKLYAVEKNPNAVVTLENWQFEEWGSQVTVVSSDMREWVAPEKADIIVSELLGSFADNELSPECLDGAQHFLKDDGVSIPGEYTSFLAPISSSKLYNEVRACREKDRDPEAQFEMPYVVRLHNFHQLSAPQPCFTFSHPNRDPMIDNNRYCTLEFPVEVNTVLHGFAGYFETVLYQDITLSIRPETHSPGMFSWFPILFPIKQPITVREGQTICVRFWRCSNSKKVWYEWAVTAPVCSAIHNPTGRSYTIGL
Chain of PRMT5-MEP50 (Q9BQA1 whole entry partner): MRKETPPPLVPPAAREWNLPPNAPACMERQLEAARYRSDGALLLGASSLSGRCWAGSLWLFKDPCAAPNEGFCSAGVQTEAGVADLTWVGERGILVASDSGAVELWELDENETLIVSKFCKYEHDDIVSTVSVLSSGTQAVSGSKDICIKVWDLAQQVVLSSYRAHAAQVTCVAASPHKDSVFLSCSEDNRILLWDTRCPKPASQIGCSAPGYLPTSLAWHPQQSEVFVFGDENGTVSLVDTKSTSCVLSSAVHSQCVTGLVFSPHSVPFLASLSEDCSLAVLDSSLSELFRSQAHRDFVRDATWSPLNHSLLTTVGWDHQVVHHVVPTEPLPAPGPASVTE
Chain of METTL3/METTL14 (Q86U44 whole entry, species assumed): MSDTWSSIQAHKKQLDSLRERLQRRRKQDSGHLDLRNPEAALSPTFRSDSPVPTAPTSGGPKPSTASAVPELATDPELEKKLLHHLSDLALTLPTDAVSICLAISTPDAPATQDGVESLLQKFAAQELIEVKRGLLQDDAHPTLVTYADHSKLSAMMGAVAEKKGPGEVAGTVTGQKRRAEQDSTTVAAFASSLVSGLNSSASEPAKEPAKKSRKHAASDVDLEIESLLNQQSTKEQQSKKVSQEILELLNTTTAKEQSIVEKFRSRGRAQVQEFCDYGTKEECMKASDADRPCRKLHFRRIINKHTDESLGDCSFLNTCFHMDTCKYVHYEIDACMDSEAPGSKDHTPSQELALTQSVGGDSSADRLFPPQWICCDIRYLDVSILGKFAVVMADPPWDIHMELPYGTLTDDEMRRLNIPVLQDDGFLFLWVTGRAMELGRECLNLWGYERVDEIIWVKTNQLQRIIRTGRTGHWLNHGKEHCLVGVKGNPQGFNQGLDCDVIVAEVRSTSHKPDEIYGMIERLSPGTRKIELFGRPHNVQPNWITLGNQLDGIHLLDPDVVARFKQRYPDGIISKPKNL
Chain of METTL3/METTL14 (Q9HCE5 whole entry partner, species assumed): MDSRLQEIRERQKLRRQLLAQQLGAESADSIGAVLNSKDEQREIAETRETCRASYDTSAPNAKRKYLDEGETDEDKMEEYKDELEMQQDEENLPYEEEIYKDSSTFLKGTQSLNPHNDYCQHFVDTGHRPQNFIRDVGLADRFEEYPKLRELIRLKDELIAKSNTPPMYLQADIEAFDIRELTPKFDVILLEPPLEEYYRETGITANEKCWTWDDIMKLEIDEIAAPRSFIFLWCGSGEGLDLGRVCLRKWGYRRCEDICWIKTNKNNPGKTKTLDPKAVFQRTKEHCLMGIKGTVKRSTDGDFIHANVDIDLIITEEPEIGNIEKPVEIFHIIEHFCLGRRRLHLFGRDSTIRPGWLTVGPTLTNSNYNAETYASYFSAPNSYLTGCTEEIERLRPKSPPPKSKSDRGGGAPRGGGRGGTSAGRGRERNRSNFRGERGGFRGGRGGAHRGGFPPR

As a reminder, the IC50 is the midpoint of a concentration-inhibition curve. With `Cn1ccc(-c2cn([C@@H]3O[C@H](C(=O)Nc4ccc5ccc(N6CCC6)nc5c4)[C@@H](O)[C@H]3O)c3ncnc(N)c23)n1` [Compound I-10, (2S,3S,4R,5R)-5-[4-amino-5-(1-methyl-1H-pyrazol-3-yl)-7H-pyrrolo[2,3-d]pyrimidin-7-yl]-N-[2-(azetidin-1-yl)quinolin-7-yl]-3,4-dihydroxyoxolane-2-carboxamide], the IC50 on METTL3/METTL14 was under 10 nM; against PRMT5-MEP50, 10 to 100 nM; in test [1], under 1000 nM.
For `CNc1ccc2ccc(NC(=O)[C@H]3O[C@@H](n4cc(-c5ccn(C)n5)c5c(N)ncnc54)[C@H](O)[C@@H]3O)cc2n1` [Compound I-32, (2S,3S,4R,5R)-5-[4-amino-5-(1-methyl-1H-pyrazol-3-yl)-7H-pyrrolo[2,3-d]pyrimidin-7-yl]-3,4-dihydroxy-N-[2-(methylamino)quinolin-7-yl]oxolane-2-carboxamide] the same measures were under 10 nM, under 10 nM and under 1000 nM.
